Results: EP0469683A1, “Derivatives of 4-amino-1-methyltetralins, their preparation and their application in therapy” (LABORATOIRES LUCIEN, Société Anonyme :, priority 1990, dated 1992)
Marks after values point to notes of the source that are not given here.

Columns and labels:
Assay type in all cases: in vivo
souris [1] = assay: Abdominal cramps test (writhing test), acetic acid i.p.; conditions: for résultats des tests complémentaires (crampes abdominales): other racemic diastereomer compared with the one shown in Tableau 4; for Degré de protection par rapport aux témoins: hydrochloride, 30 min before acetic acid; for Degré de protection par rapport aux témoins à 30´ / Degré de protection par rapport aux témoins à 1 h / Degré de protection par rapport aux témoins à 2 h / Degré de protection par rapport aux témoins à 4 h / Degré de protection par rapport aux témoins à 6 h: 4 mg/kg; for Degré de protection par rapport aux témoins à 30´: reading at 30 min; for Degré de protection par rapport aux témoins à 1 h: reading at 1 h; for Degré de protection par rapport aux témoins à 2 h: reading at 2 h; for Degré de protection par rapport aux témoins à 4 h: reading at 4 h; for Degré de protection par rapport aux témoins à 6 h: reading at 6 h
Protocol: Ce test, également connu sous le nom de WRITHING TEST, utilisé pour la sélection d'analgésiques/antalgiques à effet périphérique, consiste à rechercher une éventuelle protection vis-à-vis des crampes et/ou contorsions abdominales provoquées, chez la souris, par l'injection intrapéritonéale d'acide acétique.
Les composés ont été administrés sous forme de chlorhydrate par voie intrapéritonéale 30 minutes avant l'acide acétique.
Du point de vue cinétique de l'activité antalgique, des tests de crampes abdominales ont été poursuivis dans le temps avec des relevés à 30 minutes, 1 heure, 2 heures, 4 heures et 6 heures.

rat = assay: Carrageenan-induced hind paw oedema (plethysmometer); conditions: 15 mg/kg, given 1 h before carrageenan; for % d'inhibitions de l'oedème/témoin à 3 h: 3 h after carrageenan; for % d'inhibitions de l'oedème/témoin à 4 h: 4 h after carrageenan; for % d'inhibitions de l'oedème/témoin à 5 h: 5 h after carrageenan
Description: L'activité anti-inflammatoire de composés selon l'invention a été mise en évidence par l'étude de la réduction d'une réaction inflammatoire induite par injection de carragénine sous l'aponévrose plantaire de la patte postérieure du rat (carragénine Sigma type IV, solution de 1 % dans du soluté isotonique de NaCI).
Le test utilise un appareil de mesure de volume du type "pléthysmométre" constitué d'une structure en U remplie d'eau, une branche du U étant constituée d'un cylindre destiné à recevoir la patte de l'animal (la patte de l'animal est plongée jusqu'à coïncidence de l'articulation tibio-tarsienne avec un repère de base), l'autre branche étant constituée d'une pipette graduée permettant la mesure de volume en mode différentiel.
Selon le protocole expérimental, au temps "t0" on mesure le volume de la patte de l'animal puis on administre le produit de traitement à étudier (les animaux témoins recevant le véhicule d'administration dans les mêmes conditions). Au temps TO + 1 heure, on injecte sous l'aponévrose plantaire de chaque animal 0,05 ml de la solution de carragénine. Le volume de la patte de l'animal est mesuré 3, 4 et 5 heures après injection de la carragénine.
L'activité anti-inflammatoire est calculée en pourcentage de réduction de l'oedème chez les rats traités par rapport aux rats témoins.

souris [2] = assay: Behavioural despair test (forced swimming, immobility time); conditions: 25 mg/kg, given 30 min before 6 min exposure to water
Description: L'activité antidépressive de composés selon l'invention a été mise en évidence par l'étude du comportement du désespoir chez la souris.
Selon le principe du test, un état dépressif est induit chez la souris en l'obligeant à nager dans un récipient cylindrique étroit d'où elle ne peut s'échapper. Après une période brève d'intense activité, la souris adopte une position immobile caractéristique, facilement identifiable. Les antidépresseurs réduisent ces moments d'immobilité.
Selon le protocole expérimental, les souris sont pré-exposées à l'eau à 25°C pendant 15 minutes, 24 heures avant le test. Pour le test on administre le composé à étudier 30 minutes avant une exposition à l'eau de 6 minutes. Le temps total d'immobilité de la 2e à la 6e minute est mesuré. Les animaux témoins reçoivent le véhicule d'administration du produit de traitement dans les mêmes conditions que les animaux traités.

souris [3] = assay: Acute toxicity: mortality after single intraperitoneal administration of increasing doses; conditions: mouse
Protocol: La détermination de la mortalité chez la souris est observée à la suite de l'administration unique par voie intrapéritonéale de doses croissantes de composés à tester.
La dose limite DL100 pour les composés étudiés est supérieure ou égale à 100 mg/kg. Les doses DLO et DL100 des composés 27, 32 et 36 sont rassemblées dans le tableau 2: […]

souris [4] = assay: Hot plate test (56 C), reaction time to thermal pain stimulus; conditions: hydrochloride, 1 h after administration
Description: Cet essai consiste à mesurer le temps d'apparition d'une réaction au stimulus thermoalgique chez la souris.
L'animal est placé sur une plaque métallique portée à une température constante de 56 C. […] Après administration d'un analgésique, le délai d'apparition du réflexe s'allonge: on obtient une élévation de réaction du seuil.
Les composés ont été administrés par voie intrapéritonéale sous forme de chlorhydrate et testés sur les animaux 1 heure après leur administration. Les résultats sont donnés sur quelques exemples dans le tableau 3 suivant un pourcentage de variation du temps de réaction moyen après traitement par rapport à avant traitement.

souris [5] = assay: Abdominal cramps test (writhing test), acetic acid i.p.; conditions: oral administration; for activité par voie orale: 16 mg/kg
[6] = DLO, single dose, intraperitoneal
[7] = DL100, single dose, intraperitoneal

CC1(c2ccc(F)cc2)CCC(N2CCN(CCOC(=O)Nc3ccccc3)CC2)c2ccccc21 (stereo not drawn) [27.p (cis)]
résultats des tests complémentaires (crampes abdominales) (souris [1]): résultats comparables
% d'inhibitions de l'oedème/témoin à 3 h (rat): 35* %
% d'inhibitions de l'oedème/témoin à 4 h (rat): 39** %
% d'inhibitions de l'oedème/témoin à 5 h (rat): 43** %

CC1(c2ccc(F)cc2)CCC(N2CCN(CCOC(=O)Nc3ccccc3)CC2)c2ccccc21 (stereo not drawn) [27.p (trans)]
Degré de protection par rapport aux témoins (souris [1]; 0,5 mg/kg intraperitoneal): 58%
Degré de protection par rapport aux témoins (souris [1]; 0,25 mg/kg intraperitoneal): 47%
Degré de protection par rapport aux témoins (souris [1]; 1 mg/kg intraperitoneal): 70%
Degré de protection par rapport aux témoins (souris [1]; 2 mg/kg intraperitoneal): 68%
Degré de protection par rapport aux témoins (souris [1]; 4 mg/kg intraperitoneal): 75%
Degré de protection par rapport aux témoins à 30´ (souris [1]): 84***
Degré de protection par rapport aux témoins à 1 h (souris [1]): 68***
Degré de protection par rapport aux témoins à 2 h (souris [1]): 53**
Degré de protection par rapport aux témoins à 4 h (souris [1]): 56***
Degré de protection par rapport aux témoins à 6 h (souris [1]): 21
Degré de protection par rapport aux témoins (souris [1]; 8 mg/kg intraperitoneal): 92%
% d'inhibitions de l'oedème/témoin à 3 h (rat): 40** %
% d'inhibitions de l'oedème/témoin à 4 h (rat): 40*** %
% d'inhibitions de l'oedème/témoin à 5 h (rat): 39** %
activité antidépressive (souris [2]): activité antidépressive certaine

CC1(c2ccc(F)cc2)CCC(N2CCN(CCOC(=O)Nc3ccccc3)CC2)c2ccccc21 (stereo not shown) [27.p]
Dose limite 0 en (souris [3]; [6]): >200 mg/kg

CC(=O)OCCN1CCN(C2CCC(C)(c3ccc(F)cc3)c3cc(C(C)(C)C)ccc32)CC1 (stereo not shown) [36.a]
Variation du temps de réaction moyen en % (souris [4]; 15mg/kg intraperitoneal): 35%
activité par voie orale (souris [5]): actifs par voie orale
Dose limite 0 en (souris [3]; in vivo, ip): 100 mg/kg
Dose limite 100 en (souris [3]; in vivo, ip): >200 mg/kg
Degré de protection par rapport aux témoins (souris [1]; 2 mg/kg intraperitoneal): 52%
Degré de protection par rapport aux témoins (souris [1]; 4 mg/kg intraperitoneal): 66%
Degré de protection par rapport aux témoins à 30´ (souris [1]): 69***
Degré de protection par rapport aux témoins à 1 h (souris [1]): 82***
Degré de protection par rapport aux témoins à 2 h (souris [1]): 60**
Degré de protection par rapport aux témoins à 4 h (souris [1]): 58***
Degré de protection par rapport aux témoins à 6 h (souris [1]): 38**
Degré de protection par rapport aux témoins (souris [1]; 8 mg/kg intraperitoneal): 94%
Degré de protection par rapport aux témoins (souris [1]; 15 mg/kg intraperitoneal): 85%

CC(C)(C)c1ccc2c(c1)C(C)(c1ccc(F)cc1)CCC2N1CCN(CCOC(=O)Nc2cccc3ccccc23)CC1 (stereo not shown) [36.n]
Dose limite 0 en (souris [3]; [6]): >200 mg/kg

CC(C)(C)c1ccc2c(c1)C(C)(c1ccc(F)cc1)CCC2N1CCN(CCOC(=O)Nc2ccccc2)CC1 (stereo not drawn) [36.p (cis)]
Degré de protection par rapport aux témoins (souris [1]; 0,5 mg/kg intraperitoneal): 61%
Degré de protection par rapport aux témoins (souris [1]; 1 mg/kg intraperitoneal): 44%
Degré de protection par rapport aux témoins (souris [1]; 2 mg/kg intraperitoneal): 61%
Degré de protection par rapport aux témoins (souris [1]; 4 mg/kg intraperitoneal): 90%
Degré de protection par rapport aux témoins à 30´ (souris [1]): 89***
Degré de protection par rapport aux témoins à 1 h (souris [1]): 69***
Degré de protection par rapport aux témoins à 2 h (souris [1]): 68***
Degré de protection par rapport aux témoins à 4 h (souris [1]): 46**
Degré de protection par rapport aux témoins à 6 h (souris [1]): 24
Degré de protection par rapport aux témoins (souris [1]; 8 mg/kg intraperitoneal): 93%

CC(C)(C)c1ccc2c(c1)C(C)(c1ccc(F)cc1)CCC2N1CCN(CCOC(=O)Nc2ccccc2)CC1 (stereo not drawn) [36.p (trans)]
Variation du temps de réaction moyen en % (souris [4]; 25 mg/kg intraperitoneal): 63* %
résultats des tests complémentaires (crampes abdominales) (souris [1]): résultats comparables

CC(C)(C)c1ccc2c(c1)C(C)(c1ccc(F)cc1)CCC2N1CCN(CCOC(=O)Nc2ccccc2)CC1 (stereo not shown) [36.p]
activité par voie orale (souris [5]): actifs par voie orale
Dose limite 100 en (souris [3]; [7]): >200 mg/kg
Dose limite 0 en (souris [3]; [6]): 100 mg/kg

CC(C)(C)c1ccc2c(c1)C(C)(c1ccccc1)CCC2N1CCOCC1 (stereo not drawn) [39 (cis)]
Degré de protection par rapport aux témoins (souris [1]; 0,5 mg/kg intraperitoneal): 53%
Degré de protection par rapport aux témoins (souris [1]; 1 mg/kg intraperitoneal): 58%
Degré de protection par rapport aux témoins (souris [1]; 2 mg/kg intraperitoneal): 54%
Degré de protection par rapport aux témoins (souris [1]; 4 mg/kg intraperitoneal): 63%
Degré de protection par rapport aux témoins (souris [1]; 8 mg/kg intraperitoneal): 89%

CC(C)(C)c1ccc2c(c1)C(C)(c1ccccc1)CCC2N1CCOCC1 (stereo not drawn) [39 (trans)]
Variation du temps de réaction moyen en % (souris [4]; 25 mg/kg intraperitoneal): 58%
résultats des tests complémentaires (crampes abdominales) (souris [1]): résultats comparables

CC1(c2ccc(F)cc2)CCC(N2CCN(CCO)CC2)c2ccccc21 (stereo not shown) [compound 27]
Variation du temps de réaction moyen en % (souris [4]; 15mg/kg intraperitoneal): 29%
pourcentages de protection (souris [5]; 60 mg/kg): 86%
Dose limite 100 en (souris [3]; [7]): 200 mg/kg
Dose limite 0 en (souris [3]; [6]): 100 mg/kg
doses limites DLO et DL100 par rapport à l'amino-4-trifluorométhyl-1 tétraline correspondante (souris [3]; intraperitoneal, compared with the corresponding 4-amino-1-trifluoromethyl tetralin): deux fois
Degré de protection par rapport aux témoins (souris [1]; 4 mg/kg intraperitoneal): 49%
Degré de protection par rapport aux témoins (souris [1]; 8 mg/kg intraperitoneal): 66%
Degré de protection par rapport aux témoins (souris [1]; 15 mg/kg intraperitoneal): 92%
pourcentages de protection (souris [1]; oral administration, 32 mg/kg): 37%
activité par rapport à l'amino-4-trifluoro-méthyl-1 tétraline correspondante (souris [1]; writhing test, intraperitoneal): activité nettement améliorée

CC(C)(C)c1ccc2c(c1)C(C)(c1ccccc1)CCC2N1CCN(CCO)CC1 (stereo not shown) [compound 32]
Variation du temps de réaction moyen en % (souris [4]; 8mg/kg intraperitoneal): 16%
Dose limite 0 en (souris [3]; in vivo, ip): 25 mg/kg
Dose limite 100 en (souris [3]; in vivo, ip): 100 mg/kg
Degré de protection par rapport aux témoins (souris [1]; 8 mg/kg intraperitoneal): 41%
